Key:
[1] = tested on: redroot pigweed; test: Test Example 4: herbicidal effect by soil treatment (Table 19, symbol N); type: in vivo, redroot pigweed (Amaranthus retroflexus); settings: amount of applied herbicide 320 g/ha
In short: (§1)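 Emulsion of test compound, water-diluted to predetermined amount, sprayed on soil after sowing (seed depth ~1.5 cm, sterilized diluvial soil). Greenhouse, 25–30° C. Effect graded at three weeks post-spray.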

[2] = tested on: lambsquarters; test: Test Example 4: herbicidal effect by soil treatment (Table 19, symbol O); type: in vivo, lambsquarters (Chenopodium album); settings: amount of applied herbicide 320 g/ha
In short: as §1

[3] = tested on: wild oat; test: Test Example 5: herbicidal effect by foliage application, plastic box (Table 20, symbol I); type: in vivo, wild oat (Avena fatua); settings: foliage application, 320 g/ha, evaluated three weeks after application
In short: (§2)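 Post-emergence foliar test in sterilized diluvial soil. Compound applied as water-diluted emulsion at a predetermined rate to 14-day-old plants; evaluation at three weeks.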

[4] = tested on: wild oat; test: Test Example 4: herbicidal effect by soil treatment (Table 19, symbol I); type: in vivo, wild oat (Avena fatua); settings: amount of applied herbicide 320 g/ha
In short: as §1

[5] = tested on: Chinese sprangletop; test: Test Example 3: herbicidal effect by foliage application, Wagner pot (Table 18, symbol D); type: in vivo, chinese sprangletop (Leptochloa chinensis); settings: amount of applied herbicide 320 g/ha
In short: (§3)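 Plants were sown in alluvial soil held under 0.1–0.5 cm standing water and grown 14 days in a greenhouse at 25–30 °C. An emulsifiable formulation, water-diluted to the set dose, was then sprayed onto the foliage, and effects were scored three weeks later using previously defined criteria.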

[6] = tested on: Italian ryegrass; test: Test Example 5: herbicidal effect by foliage application, plastic box (Table 20, symbol K); type: in vivo, Italian ryegrass (Lolium multiflorum); settings: foliage application, 320 g/ha, evaluated three weeks after application
In short: as §2

[7] = tested on: chickweed; test: Test Example 4: herbicidal effect by soil treatment (Table 19, symbol P); type: in vivo, common chickweed (Stellaria media); settings: amount of applied herbicide 320 g/ha
In short: as §1

[8] = tested on: persian speedwell; test: Test Example 5: herbicidal effect by foliage application, plastic box (Table 20, symbol R); type: in vivo, Persian speedwell (Veronica persica); settings: foliage application, 320 g/ha, evaluated three weeks after application
In short: as §2

[9] = tested on: southern crabgrass; test: Test Example 5: herbicidal effect by foliage application, plastic box (Table 20, symbol F); type: in vivo, southern crabgrass (Digitaria ciliaris); settings: foliage application, 320 g/ha, evaluated three weeks after application
In short: as §2

[10] = tested on: green foxtail; test: Test Example 4: herbicidal effect by soil treatment (Table 19, symbol G); type: in vivo, green foxtail (Setaria viridis); settings: amount of applied herbicide 320 g/ha
In short: as §1

[11] = tested on: persian speedwell; test: Test Example 4: herbicidal effect by soil treatment (Table 19, symbol R); type: in vivo, Persian speedwell (Veronica persica); settings: amount of applied herbicide 320 g/ha
In short: as §1

[12] = tested on: velvetleaf; test: Test Example 5: herbicidal effect by foliage application, plastic box (Table 20, symbol M); type: in vivo, velvetleaf (Abutilon theophrasti); settings: foliage application, 320 g/ha, evaluated three weeks after application
In short: as §2

[13] = tested on: windgrass; test: Test Example 5: herbicidal effect by foliage application, plastic box (Table 20, symbol L); type: in vivo, windgrass (Apera spica-venti); settings: foliage application, 320 g/ha, evaluated three weeks after application
In short: as §2

[14] = tested on: blackgrass; test: Test Example 5: herbicidal effect by foliage application, plastic box (Table 20, symbol J); type: in vivo, blackgrass (Alopecurus myosuroides); settings: foliage application, 320 g/ha, evaluated three weeks after application
In short: as §2

[15] = tested on: velvetleaf; test: Test Example 4: herbicidal effect by soil treatment (Table 19, symbol M); type: in vivo, velvetleaf (Abutilon theophrasti); settings: amount of applied herbicide 320 g/ha
In short: as §1

[16] = tested on: false cleavers; test: Test Example 5: herbicidal effect by foliage application, plastic box (Table 20, symbol Q); type: in vivo, false cleavers (Galium spurium); settings: foliage application, 320 g/ha, evaluated three weeks after application
In short: as §2

[17] = tested on: rice flat sedge; test: Test Example 3: herbicidal effect by foliage application, Wagner pot (Table 18, symbol E); type: in vivo, rice flat sedge (Cyperus iria); settings: amount of applied herbicide 320 g/ha
In short: as §3

[18] = tested on: blackgrass; test: Test Example 4: herbicidal effect by soil treatment (Table 19, symbol J); type: in vivo, blackgrass (Alopecurus myosuroides); settings: amount of applied herbicide 320 g/ha
In short: as §1

[19] = tested on: barnyard grass; test: Test Example 4: herbicidal effect by soil treatment (Table 19, symbol H); type: in vivo, barnyard grass (Echinochloa crus-galli); settings: amount of applied herbicide 320 g/ha
In short: as §1

[20] = tested on: green foxtail; test: Test Example 5: herbicidal effect by foliage application, plastic box (Table 20, symbol G); type: in vivo, green foxtail (Setaria viridis); settings: foliage application, 320 g/ha, evaluated three weeks after application
In short: as §2

[21] = tested on: windgrass; test: Test Example 4: herbicidal effect by soil treatment (Table 19, symbol L); type: in vivo, windgrass (Apera spica-venti); settings: amount of applied herbicide 320 g/ha
In short: as §1

[22] = tested on: barnyard grass; test: Test Example 3: herbicidal effect by foliage application, Wagner pot (Table 18, symbol H); type: in vivo, barnyard grass (Echinochloa crus-galli); settings: amount of applied herbicide 320 g/ha
In short: as §3

[23] = tested on: southern crabgrass; test: Test Example 4: herbicidal effect by soil treatment (Table 19, symbol F); type: in vivo, southern crabgrass (Digitaria ciliaris); settings: amount of applied herbicide 320 g/ha
In short: as §1

[24] = tested on: chickweed; test: Test Example 5: herbicidal effect by foliage application, plastic box (Table 20, symbol P); type: in vivo, common chickweed (Stellaria media); settings: foliage application, 320 g/ha, evaluated three weeks after application
In short: as §2

[25] = tested on: lambsquarters; test: Test Example 5: herbicidal effect by foliage application, plastic box (Table 20, symbol O); type: in vivo, lambsquarters (Chenopodium album); settings: foliage application, 320 g/ha, evaluated three weeks after application
In short: as §2

[26] = tested on: false cleavers; test: Test Example 4: herbicidal effect by soil treatment (Table 19, symbol Q); type: in vivo, false cleavers (Galium spurium); settings: amount of applied herbicide 320 g/ha
In short: as §1

[27] = tested on: redroot pigweed; test: Test Example 5: herbicidal effect by foliage application, plastic box (Table 20, symbol N); type: in vivo, redroot pigweed (Amaranthus retroflexus); settings: foliage application, 320 g/ha, evaluated three weeks after application
In short: as §2

[28] = tested on: Italian ryegrass; test: Test Example 4: herbicidal effect by soil treatment (Table 19, symbol K); type: in vivo, Italian ryegrass (Lolium multiflorum); settings: amount of applied herbicide 320 g/ha
In short: as §1

[29] = tested on: barnyard grass; test: Test Example 5: herbicidal effect by foliage application, plastic box (Table 20, symbol H); type: in vivo, barnyard grass (Echinochloa crus-galli); settings: foliage application, 320 g/ha, evaluated three weeks after application
In short: as §2

SMILES | N: redroot pigweed, herbicidal effect rating [1] | O: lambsquarters, herbicidal effect rating [2] | herbicidal effect on I: wild oat [3] | I: wild oat, herbicidal effect rating [4] | herbicidal effect on D: Chinese sprangletop [5] | herbicidal effect on K: Italian ryegrass [6] | P: chickweed, herbicidal effect rating [7] | herbicidal effect on R: persian speedwell [8] | herbicidal effect on F: southern crabgrass [9] | G: green foxtail, herbicidal effect rating [10] | R: persian speedwell, herbicidal effect rating [11] | herbicidal effect on M: velvetleaf [12] | herbicidal effect on L: windgrass [13] | herbicidal effect on J: blackgrass [14] | M: velvetleaf, herbicidal effect rating [15] | herbicidal effect on Q: false cleavers [16] | herbicidal effect on E: rice flat sedge [17] | J: blackgrass, herbicidal effect rating [18] | H: barnyard grass, herbicidal effect rating [19] | herbicidal effect on G: green foxtail [20] | also measured
CCOc1cc(F)ccc1-c1sc2ccc(Cl)cc2c1-c1c(O)c(C)nn(C)c1=O [2-115] | 5 (Herbicidal rate of 90% or more (almost completely withered)) | 3 (Herbicidal rate of 40% or more and less than 70%) | 1 (Herbicidal rate of 5% or more and less than 20%) | 0 (Herbicidal rate of 5% or less (almost no effect)) | 1 (Herbicidal rate of 5% or more and less than 20%) | 0 (Herbicidal rate of 5% or less (almost no effect)) | 3 (Herbicidal rate of 40% or more and less than 70%) | 5 (Herbicidal rate of 90% or more (almost completely withered)) | 4 (Herbicidal rate of 70% or more and less than 90%) | 2 (Herbicidal rate of 20% or more and less than 40%) | 4 (Herbicidal rate of 70% or more and less than 90%) | 5 (Herbicidal rate of 90% or more (almost completely withered)) | 3 (Herbicidal rate of 40% or more and less than 70%) | 3 (Herbicidal rate of 40% or more and less than 70%) | 1 (Herbicidal rate of 5% or more and less than 20%) | 5 (Herbicidal rate of 90% or more (almost completely withered)) | 3 (Herbicidal rate of 40% or more and less than 70%) | 4 (Herbicidal rate of 70% or more and less than 90%) | 3 (Herbicidal rate of 40% or more and less than 70%) | 3 (Herbicidal rate of 40% or more and less than 70%) | L: windgrass, herbicidal effect rating [21]: 0 (Herbicidal rate of 5% or less (almost no effect)); herbicidal effect on H: barnyard grass [22]: 5 (Herbicidal rate of 90% or more (almost completely withered)); F: southern crabgrass, herbicidal effect rating [23]: 3 (Herbicidal rate of 40% or more and less than 70%); herbicidal effect on P: chickweed [24]: 5 (Herbicidal rate of 90% or more (almost completely withered)); herbicidal effect on O: lambsquarters [25]: 3 (Herbicidal rate of 40% or more and less than 70%); Q: false cleavers, herbicidal effect rating [26]: 4 (Herbicidal rate of 70% or more and less than 90%); herbicidal effect on N: redroot pigweed [27]: 5 (Herbicidal rate of 90% or more (almost completely withered)); K: Italian ryegrass, herbicidal effect rating [28]: 0 (Herbicidal rate of 5% or less (almost no effect)); herbicidal effect on H: barnyard grass [29]: 5 (Herbicidal rate of 90% or more (almost completely withered))
Cc1nn(C)c(=O)c(-c2c(-c3ccc4c(c3)OCCO4)sc3ccc(Cl)cc23)c1O [2-127] | 0 (Herbicidal rate of 5% or less (almost no effect)) | 4 (Herbicidal rate of 70% or more and less than 90%) | 0 (Herbicidal rate of 5% or less (almost no effect)) | 0 (Herbicidal rate of 5% or less (almost no effect)) | 0 (Herbicidal rate of 5% or less (almost no effect)) | 0 (Herbicidal rate of 5% or less (almost no effect)) | 3 (Herbicidal rate of 40% or more and less than 70%) | 5 (Herbicidal rate of 90% or more (almost completely withered)) | 0 (Herbicidal rate of 5% or less (almost no effect)) | 0 (Herbicidal rate of 5% or less (almost no effect)) | 5 (Herbicidal rate of 90% or more (almost completely withered)) | 4 (Herbicidal rate of 70% or more and less than 90%) | 0 (Herbicidal rate of 5% or less (almost no effect)) | 0 (Herbicidal rate of 5% or less (almost no effect)) | 4 (Herbicidal rate of 70% or more and less than 90%) | 0 (Herbicidal rate of 5% or less (almost no effect)) | 5 (Herbicidal rate of 90% or more (almost completely withered)) | 0 (Herbicidal rate of 5% or less (almost no effect)) | 0 (Herbicidal rate of 5% or less (almost no effect)) | 0 (Herbicidal rate of 5% or less (almost no effect)) | L: windgrass, herbicidal effect rating [21]: 0 (Herbicidal rate of 5% or less (almost no effect)); herbicidal effect on H: barnyard grass [22]: 3 (Herbicidal rate of 40% or more and less than 70%); F: southern crabgrass, herbicidal effect rating [23]: 0 (Herbicidal rate of 5% or less (almost no effect)); herbicidal effect on P: chickweed [24]: 5 (Herbicidal rate of 90% or more (almost completely withered)); herbicidal effect on O: lambsquarters [25]: 3 (Herbicidal rate of 40% or more and less than 70%); Q: false cleavers, herbicidal effect rating [26]: 0 (Herbicidal rate of 5% or less (almost no effect)); herbicidal effect on N: redroot pigweed [27]: 3 (Herbicidal rate of 40% or more and less than 70%); K: Italian ryegrass, herbicidal effect rating [28]: 0 (Herbicidal rate of 5% or less (almost no effect)); herbicidal effect on H: barnyard grass [29]: 1 (Herbicidal rate of 5% or more and less than 20%)

Reference: patent US20230085307A1, “PYRIDAZINONE COMPOUND AND HERBICIDE” (NISSAN CHEMICAL CORPORATION, priority 2019, published 2023)
